Experimental data: patent US20060063784A1, “Method of using substituted pyrazolo [1,5-a] pyrimidines” (priority 2004, published 2006)
Where two headings read alike, the source gives them in different places.

Tests used:
[1] = test system: 80S14 (p21-deficient) cells; assay: Cytotoxicity assay using isogenic cell lines: IC50 in 80S14 (p21-deficient) cells, SRB; format: cell-based, human
Summary of the method: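 IC50 is the concentration halving proliferation relative to untreated controls, read from SRB absorbance (560 nm) after TCA fixation. Test agent dilutions (5 pM–50 μM or 170 pg/ml–10 μg/ml) were left on p21-deficient 80S14 cells (12,000/well, pre-incubated overnight) for 5 days at 37 °C.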

LoVo Colon cell line = assay: Cytotoxicity assay using LoVo colon cell line, SRB; format: cell-based; settings: read-out: Inhibition of LoVo
Experimental: Cytotoxicity Assay Using LoVo Colon Cell Line: • 1. LoVo Colon cell lines were cultured in RPMI 1640 medium (Gibco/Invitrogen Life Sciences) supplemented with 10% fetal bovine serum (FBS, Gibco) and 50 μg/ml entamicin (Gibco). Cells were maintained at 37° C. under 7% CO2. • 2. Cells were seeded in 96-well microtiter plates (Corning/Costar) in a volume of 0.15 ml of growth medium (4000 cells/well). Plates were incubated at 37° C. overnight (18-24 hours). • 3. Serial dilutions of the test agent were added to each well. Dilutions were prepared in growth medium. One of two dose ranges was used: 5 pM to 20 μM or 170 pg/ml to 10 μg/ml. Cells were incubated with the test compounds for 4 days at 37° C. • 4. Surviving cells were processed using the SRB asay, as described above.
5. The drug concentration that inhibits cell proliferation by 50% relative to untreated controls (IC50) was determined from cytotoxicity curves using the LSW Toolbox graphing application.

[2] = Homo sapiens, 120 h, 80S14 (p21-deficient) cells, 5 days, SRB, class symbols, read-out: IC50 for 80S14
[3] = Homo sapiens, 96 h, Cellular activity in LoVo cell, 4 days incubation, SRB
[4] = Homo sapiens, 80S14, 120 h, read-out: IC50 for 80S14 (uM)
[5] = Homo sapiens, 120 h, 80S14 p21-deficient cells, 5 days incubation, SRB, read-out: IC50 for 80SI4
[6] = Homo sapiens, 96 h, LoVo colon cells, 4 days incubation, SRB

Molecule | IC50 [1, 2] [µM] | IC50 (LoVo Colon cell line; [3]) [nM] | other results
O=C(c1cccs1)c1cnn2c(-c3cccc(N4CCCC4=O)c3)ccnc12 [Example 437, 1-{3-[3-(Thien-2-ylcarbonyl)pyrazolo[1,5-a]pyrimidin-7-yl]phenyl}pyrrolidin-2-one] | < 1 | < 100 | –
CC(C)OC(=O)Nc1cccc(-c2ccnc3c(C(=O)c4ccsc4)cnn23)c1 [Example 293, Isopropyl 3-[3-(3-thienylcarbonyl)pyrazolo[1,5-a]pyrimidin-7-yl]phenylcarbamate] | – | – | IC50 [1, 4]: < 1 µM; IC50 (LoVo Colon cell line; Homo sapiens, LoVo, 96 h): < 100 nM
O=C(Nc1cccc(-c2ccnc3c(C(=O)c4cccs4)cnn23)c1)NC1CCCC1 [Example 162, N-cyclopentyl-N′-{3-[3-(thien-2-ylcarbonyl)pyrazolo[1,5-a]pyrimidin-7-yl]phenyl}urea] | – | – | IC50 [1, 5]: < 1 µM; IC50 (LoVo Colon cell line; [6]): < 100 nM
CC(C)(C)CNC(=O)Nc1cccc(-c2ccnc3c(C(=O)c4cccs4)cnn23)c1 [Example 164, N-neopentyl-N′-{3-[3-(thien-2-ylcarbonyl)pyrazolo[1,5-a]pyrimidin-7-yl]phenyl}urea] | – | – | IC50 [1, 5]: < 1 µM; IC50 (LoVo Colon cell line; [6]): < 100 nM
CC(C)CC(=O)Nc1cc(-c2ccnc3c(C(=O)c4cccs4)cnn23)ccc1F [Example 342, N-{2-Fluoro-5-[3-(thien-2-ylcarbonyl)pyrazolo[1,5-a]pyrimidin-7-yl]phenyl}-3-methylbutanamide] | – | – | IC50 [1, 4]: < 1 µM; IC50 (LoVo Colon cell line; Homo sapiens, LoVo, 96 h): < 100 nM
O=C(Nc1cccc(-c2ccnc3c(C(=O)c4cccs4)cnn23)c1)OCC1CCCCC1 [Example 175, cyclohexylmethyl 3-[3-(thien-2-ylcarbonyl)pyrazolo[1,5-a]pyrimidin-7-yl]phenylcarbamate] | – | – | IC50 [1, 5]: < 1 µM; IC50 (LoVo Colon cell line; [6]): < 100 nM
O=C(Nc1cccc(-c2ccnc3c(C(=O)c4cccs4)cnn23)c1)c1cccnc1 [Example 290, N-{3-[3-(2-Thienylcarbonyl)pyrazolo[1,5-a]pyrimidin-7-yl]phenyl}nicotinamide] | < 1 | 100 to 1000 | –
Cc1cc(-c2cccc(NC(=O)c3ccccc3)c2)n2ncc(C(=O)c3cccs3)c2n1 [Example 202, N-{3-[5-methyl-3-(thien-2-ylcarbonyl)pyrazolo[1,5-a]pyrimidin-7-yl]phenyl}benzamide] | – | – | IC50 [1, 5]: 10 to 50 µM; IC50 (LoVo Colon cell line; [6]): 100 to 1000 nM
CCOC(=O)Nc1cccc(-c2ccnc3c(C(=O)c4cccs4)cnn23)c1 [Example 25, ethyl 3-[3-(thien-2-ylcarbonyl)pyrazolo[1,5-a]pyrimidin-7-yl]phenylcarbamate] | – | – | IC50 ([1]; Homo sapiens, 80S14, 120 h, read-out: IC50 for 80SI4 (uM)): < 1 µM; IC50 (LoVo Colon cell line; Homo sapiens, LoVo, 96 h): < 100 nM
Cc1cnc2c(C(=O)c3cccs3)cnn2c1-c1cccc(NC(=O)OCC(C)(C)C)c1 [Example 214, neopentyl 3-[6-methyl-3-(thien-2-ylcarbonyl)pyrazolo[1,5-a]pyrimidin-7-yl]phenylcarbamate] | – | – | IC50 [1, 5]: 10 to 50 µM; IC50 (LoVo Colon cell line; [6]): 1000 to 2000 nM
CC(C)CC(=O)Nc1cncc(-c2ccnc3c(C(=O)c4cccs4)cnn23)c1 [Example 324, 3-Methyl-N-{5-[3-(2-thienylcarbonyl)pyrazolo[1,5-a]pyrimidin-7-yl]-3-pyridinyl}butanamide] | 1 to 10 | 100 to 1000 | –
N-{3-[6-methyl-3-(thien-2-ylcarbonyl)pyrazolo[1,5-a]pyrimidin-7-yl]phenyl}cycopropanecarboxamide [Example 217] | – | – | IC50 ([1]; 80S14 p21-deficient cells, 5 days incubation, SRB, read-out: IC50 for 80SI4): 10 to 50 µM; IC50 (LoVo Colon cell line; LoVo colon cells, 4 days incubation, SRB): < 100 nM
O=C(c1cccs1)c1cnn2c(-c3cccc(-c4nnn(CCO)n4)c3)ccnc12 [Example 513, (7-{3-[2-(2-Hydroxyethyl)-2H-tetraazol-5-yl]phenyl}pyrazolo[1,5-a]pyrimidin-3-yl)(thien-2-yl)methanone] | 1 to 10 | 100 to 1000 | –
O=C(c1cccs1)c1cnn2c(-c3cccc(NCc4ccoc4)c3)ccnc12 [Example 369, (7-{3-[(3-Furylmethyl)amino]phenyl}pyrazolo[1,5-a]pyrimidin-3-yl)(thien-2-yl)methanone] | 1 to 10 | 100 to 1000 | –
C=CCOC(=O)Nc1cccc(-c2cc(C)nc3c(C(=O)c4cccs4)cnn23)c1 [Example 196, allyl 3-[5-methyl-3-(thien-2-ylcarbonyl)pyrazolo[1,5-a]pyrimidin-7-yl]phenylcarbamate] | – | – | IC50 [1, 5]: < 1 µM; IC50 (LoVo Colon cell line; [6]): 100 to 1000 nM
CC(C)CC(=O)Nc1cccc(-c2ccnc3c(-c4cccc(N(C)C)c4)cnn23)c1 [Example 465, N-(3-{3-[3-(Dimethylamino)phenyl]pyrazolo[1,5-a]pyrimidin-7-yl}phenyl)-3-methylbutanamide] | < 1 | < 100 | –
Cc1cc(C)cc(-c2cnn3c(-c4cccc(C#N)c4)ccnc23)c1 [Example 490, 3-[3-(3,5-Dimethylphenyl)pyrazolo[1,5-a]pyrimidin-7-yl]benzonitrile] | 10 to 50 | 1000 to 20000 | –
O=C(CCC(Cl)(Cl)Cl)Nc1cccc(-c2ccnc3c(C(=O)c4cccs4)cnn23)c1 [Example 354, 4,4,4-Trichloro-N-{3-[3-(thien-2-ylcarbonyl)pyrazolo[1,5-a]pyrimidin-7-yl]phenyl}butanamide] | < 1 | < 100 | –
O=C(c1cccs1)c1cnn2c(-c3cccc(NC(=O)N4CCCC4)c3)ccnc12 [Example 170, N-{3-[3-(thien-2-ylcarbonyl)pyrazolo[1,5-a]pyrimidin-7-yl]phenyl}pyrrolidine-1-carboxamide] | – | – | IC50 [1, 5]: 1 to 10 µM; IC50 (LoVo Colon cell line; [6]): 100 to 1000 nM
O=C(Nc1cc(-c2ccnc3c(C(=O)c4cccs4)cnn23)ccc1F)c1ccccc1Cl [Example 376, 2-Chloro-N-{2-fluoro-5-[3-(thien-2-ylcarbonyl)pyrazolo[1,5-a]pyrimidin-7-yl]phenyl}benzamide] | < 1 | < 100 | –
O=C(c1cccs1)c1cnn2c(-c3cccc(NC(=O)C4CCCCC4)c3)ccnc12 [Example 282, N-{3-[3-(2-Thienylcarbonyl)pyrazolo[1,5-a]pyrimidin-7-yl]phenyl}cyclohexanecarboxamide] | < 1 | 100 to 1000 | –
O=C(c1cccs1)c1cnn2c(-c3ccc(F)c(N(C(=O)c4ccccc4Cl)C(=O)c4ccccc4Cl)c3)ccnc12 [Example 438, 2-Chloro-N-(2-chlorobenzoyl)-N-{2-fluoro-5-[3-(thien-2-ylcarbonyl)pyrazolo[1,5-a]pyrimidin-7-yl]phenyl}benzamide] | < 1 | < 100 | –
O=C(c1cccs1)c1cnn2c(-c3cccc(-c4ccc(CO)cc4)c3)ccnc12 [Example 452, {7-[4′-(Hydroxymethyl)-1,1′-biphenyl-3-yl]pyrazolo[1,5-a]pyrimidin-3-yl}(thien-2-yl)methanone] | < 1 | < 100 | –
CC(C)CC(=O)Nc1cccc(-c2ccnc3c(-c4cc(Cl)cc(Cl)c4)cnn23)c1 [Example 475, N-{3-[3-(3,5-Dichlorophenyl)pyrazolo[1,5-a]pyrimidin-7-yl]phenyl}-3-methylbutanamide] | 1 to 10 | 1000 to 20000 | –
COc1cccc(-c2cnn3c(-c4cccc(NC(=O)CC(C)C)c4)ccnc23)c1 [Example 478, N-{3-[3-(3-Methoxyphenyl)pyrazolo[1,5-a]pyrimidin-7-yl]phenyl}-3-methylbutanamide] | 10 to 50 | 1000 to 20000 | –
O=C(c1cccs1)c1cnn2c(-c3cccc(-c4nnn(CCN5CCCC5)n4)c3)ccnc12 [Example 511, (7-{3-[2-(2-Pyrrolidin-1-ylethyl)-2H-tetraazol-5-yl]phenyl}pyrazolo[1,5-a]pyrimidin-3-yl)(thien-2-yl)methanone] | < 1 | 100 to 1000 | –
CN(C)c1ccc(-c2cccc(-c3ccnc4c(C(=O)c5cccs5)cnn34)c2)cc1 [Example 450, {7-[4′-(Dimethylamino)-1,1′-biphenyl-3-yl]pyrazolo[1,5-a]pyrimidin-3-yl}(thien-2-yl)methanone] | < 1 | < 100 | –
CC12CCC(C(=O)Nc3cccc(-c4ccnc5c(C(=O)c6cccs6)cnn45)c3)(OC1=O)C2(C)C (stereo not drawn) [Example 54, 4,7,7-trimethyl-3-oxo-N-{3-[3-(thien-2-ylcarbonyl)pyrazolo[1,5-a]pyrimidin-7-yl]phenyl}-2-oxabicyclo[2.2.1]heptane-1-carboxamide] | – | – | IC50 [1, 5]: < 1 µM; IC50 (LoVo Colon cell line; [6]): < 100 nM
Cc1cc(C)cc(-c2cnn3c(-c4cccc(-c5nnn[nH]5)c4)ccnc23)c1 [Example 491, 3-(3,5-Dimethylphenyl)-7-[3-(1H-tetraazol-5-yl)phenyl]pyrazolo[1,5-a]pyrimidine] | 1 to 10 | 1000 to 20000 | –
Thienylcarbonyl)pyrazolo[1,5-a]pyrimidin-7-yl]phenyl}cyclobutanecarboxamide [Example 275] | – | – | IC50 ([1]; 80S14 (p21-deficient) cells, 5 days, SRB, class symbols, read-out: IC50 for 80S14): < 1 µM; IC50 (LoVo Colon cell line; Cellular activity in LoVo cell, 4 days incubation, SRB): < 100 nM
